The record followed here is publication PMC9329436, “Optimization of the 4-anilinoquin(az)oline scaffold as epidermal growth factor receptor (EGFR) inhibitors for chordoma utilizing a toxicology profiling assay platform” (Scientific Reports, 2022).

Read-outs that look alike come from different tables or passages of the source.

Format in all cases: biochemical
In experiment [1] the target is T1, 320 wild-type protein kinases (Homo sapiens, UniProt P35626).
T1 sequence (P35626 1-688): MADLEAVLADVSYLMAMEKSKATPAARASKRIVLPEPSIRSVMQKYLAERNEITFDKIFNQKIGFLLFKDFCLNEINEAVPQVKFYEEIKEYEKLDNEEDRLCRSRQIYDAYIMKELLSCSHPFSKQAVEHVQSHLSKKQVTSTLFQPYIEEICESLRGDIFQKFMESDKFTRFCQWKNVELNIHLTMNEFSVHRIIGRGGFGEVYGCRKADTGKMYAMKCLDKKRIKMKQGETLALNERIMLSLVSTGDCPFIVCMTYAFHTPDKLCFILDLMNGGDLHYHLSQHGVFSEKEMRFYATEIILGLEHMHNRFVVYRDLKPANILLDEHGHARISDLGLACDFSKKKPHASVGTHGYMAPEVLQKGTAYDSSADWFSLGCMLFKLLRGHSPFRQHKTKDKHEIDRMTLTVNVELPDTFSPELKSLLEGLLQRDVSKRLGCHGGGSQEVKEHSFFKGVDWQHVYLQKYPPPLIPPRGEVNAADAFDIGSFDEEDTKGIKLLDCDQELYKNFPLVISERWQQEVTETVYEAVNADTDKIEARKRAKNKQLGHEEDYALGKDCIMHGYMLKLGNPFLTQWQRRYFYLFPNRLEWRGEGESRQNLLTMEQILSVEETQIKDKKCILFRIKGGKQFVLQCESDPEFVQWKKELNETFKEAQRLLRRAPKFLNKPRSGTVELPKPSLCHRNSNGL
To be noted: singlicate. An excerpt: (§1) Table S4. Profiling of two compounds at two concentrations against 320 wild-type protein kinases; singlicate measurement; Residual activities (% of control).

In experiment [2] the target is T2, 320 wild-type protein kinases (Homo sapiens, UniProt O15264).
T2 sequence (O15264 1-365): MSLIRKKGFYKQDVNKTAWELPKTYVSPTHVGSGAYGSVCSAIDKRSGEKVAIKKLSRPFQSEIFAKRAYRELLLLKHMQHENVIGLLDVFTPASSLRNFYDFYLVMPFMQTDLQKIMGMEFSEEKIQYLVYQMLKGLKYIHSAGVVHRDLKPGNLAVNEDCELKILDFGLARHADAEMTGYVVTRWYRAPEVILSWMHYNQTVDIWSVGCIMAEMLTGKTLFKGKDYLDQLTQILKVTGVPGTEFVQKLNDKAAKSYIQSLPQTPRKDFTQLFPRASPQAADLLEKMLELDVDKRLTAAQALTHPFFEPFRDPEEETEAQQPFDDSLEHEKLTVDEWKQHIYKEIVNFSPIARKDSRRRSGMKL
To be noted: p38-delta, singlicate.
Text: as §1

For experiment [3], the target named is 320 wild-type protein kinases (Homo sapiens, UniProt P37023). To be noted: singlicate.
Chain of 320 wild-type protein kinases (Homo sapiens, UniProt P37023) (P37023 22-503): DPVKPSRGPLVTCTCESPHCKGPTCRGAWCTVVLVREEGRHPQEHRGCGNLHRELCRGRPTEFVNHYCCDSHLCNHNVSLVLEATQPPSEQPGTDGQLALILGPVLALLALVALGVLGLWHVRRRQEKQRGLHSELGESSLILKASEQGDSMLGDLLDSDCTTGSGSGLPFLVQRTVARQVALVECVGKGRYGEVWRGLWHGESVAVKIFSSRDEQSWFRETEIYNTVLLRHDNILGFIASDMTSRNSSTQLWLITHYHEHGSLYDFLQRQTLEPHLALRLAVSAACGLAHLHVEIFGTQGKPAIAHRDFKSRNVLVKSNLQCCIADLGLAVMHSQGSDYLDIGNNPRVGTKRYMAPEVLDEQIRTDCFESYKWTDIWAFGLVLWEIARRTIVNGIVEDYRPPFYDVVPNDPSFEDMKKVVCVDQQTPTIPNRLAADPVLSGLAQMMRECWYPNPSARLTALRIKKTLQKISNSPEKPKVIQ
Text: as §1

Experiment [4] has as its target 320 wild-type protein kinases (Homo sapiens, UniProt P78527). To be noted: DNA-PK, singlicate.
Text: as §1

Experiment [5] has as its target T3, 320 wild-type protein kinases (Homo sapiens, UniProt P54762).
T3 sequence (P54762 18-984): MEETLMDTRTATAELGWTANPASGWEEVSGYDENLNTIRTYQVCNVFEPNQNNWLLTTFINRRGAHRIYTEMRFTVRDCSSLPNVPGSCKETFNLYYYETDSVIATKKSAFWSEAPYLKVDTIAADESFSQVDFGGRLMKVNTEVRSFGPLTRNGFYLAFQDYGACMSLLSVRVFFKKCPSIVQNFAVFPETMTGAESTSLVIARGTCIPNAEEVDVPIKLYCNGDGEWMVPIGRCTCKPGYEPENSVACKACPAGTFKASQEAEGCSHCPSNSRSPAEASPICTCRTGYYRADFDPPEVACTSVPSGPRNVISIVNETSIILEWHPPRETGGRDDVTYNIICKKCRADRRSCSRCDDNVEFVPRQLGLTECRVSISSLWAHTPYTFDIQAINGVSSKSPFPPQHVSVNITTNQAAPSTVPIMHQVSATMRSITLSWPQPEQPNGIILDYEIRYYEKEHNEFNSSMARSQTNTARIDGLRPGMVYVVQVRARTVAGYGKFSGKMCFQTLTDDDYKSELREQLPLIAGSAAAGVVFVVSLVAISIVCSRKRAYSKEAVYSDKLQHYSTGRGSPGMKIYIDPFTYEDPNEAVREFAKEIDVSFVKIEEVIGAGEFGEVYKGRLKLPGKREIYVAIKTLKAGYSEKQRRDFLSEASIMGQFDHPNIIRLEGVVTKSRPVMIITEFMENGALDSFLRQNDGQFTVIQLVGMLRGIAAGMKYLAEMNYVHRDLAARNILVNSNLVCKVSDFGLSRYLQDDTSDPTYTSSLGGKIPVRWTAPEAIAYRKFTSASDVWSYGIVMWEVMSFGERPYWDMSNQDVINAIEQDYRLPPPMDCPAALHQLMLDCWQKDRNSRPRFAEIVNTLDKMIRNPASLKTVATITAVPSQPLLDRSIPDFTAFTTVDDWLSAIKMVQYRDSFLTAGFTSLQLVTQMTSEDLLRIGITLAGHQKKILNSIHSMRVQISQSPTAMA
To be noted: singlicate.
Text: as §1

For experiment [6], the target named is 320 wild-type protein kinases (Homo sapiens, UniProt Q9UK32). To be noted: kinase RPS6KA6, singlicate.
Chain of 320 wild-type protein kinases (Homo sapiens, UniProt Q9UK32) (Q9UK32 whole entry): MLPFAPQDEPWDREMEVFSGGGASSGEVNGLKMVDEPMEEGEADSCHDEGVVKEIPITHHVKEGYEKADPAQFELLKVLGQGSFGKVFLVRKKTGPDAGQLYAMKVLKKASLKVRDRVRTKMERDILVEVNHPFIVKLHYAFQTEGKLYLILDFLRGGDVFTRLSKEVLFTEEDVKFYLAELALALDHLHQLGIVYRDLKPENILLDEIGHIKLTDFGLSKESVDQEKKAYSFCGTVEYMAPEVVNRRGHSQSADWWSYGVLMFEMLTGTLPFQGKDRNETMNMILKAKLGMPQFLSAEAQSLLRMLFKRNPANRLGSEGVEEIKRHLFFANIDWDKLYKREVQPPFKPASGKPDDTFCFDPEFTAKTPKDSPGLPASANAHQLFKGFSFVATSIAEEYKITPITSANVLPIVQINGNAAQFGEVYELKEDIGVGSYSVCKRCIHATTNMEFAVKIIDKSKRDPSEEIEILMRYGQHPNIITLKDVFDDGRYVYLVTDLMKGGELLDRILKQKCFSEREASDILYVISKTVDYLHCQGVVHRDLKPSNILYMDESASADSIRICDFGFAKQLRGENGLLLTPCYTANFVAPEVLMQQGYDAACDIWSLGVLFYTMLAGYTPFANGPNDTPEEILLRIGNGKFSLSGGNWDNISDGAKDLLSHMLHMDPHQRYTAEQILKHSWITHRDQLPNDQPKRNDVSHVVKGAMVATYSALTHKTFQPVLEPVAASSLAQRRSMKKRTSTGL
Text: as §1

For experiment [7], the target named is 320 wild-type protein kinases (Homo sapiens, UniProt P42685). To be noted: FRK, singlicate.
Chain of 320 wild-type protein kinases (Homo sapiens, UniProt P42685) (P42685 whole entry): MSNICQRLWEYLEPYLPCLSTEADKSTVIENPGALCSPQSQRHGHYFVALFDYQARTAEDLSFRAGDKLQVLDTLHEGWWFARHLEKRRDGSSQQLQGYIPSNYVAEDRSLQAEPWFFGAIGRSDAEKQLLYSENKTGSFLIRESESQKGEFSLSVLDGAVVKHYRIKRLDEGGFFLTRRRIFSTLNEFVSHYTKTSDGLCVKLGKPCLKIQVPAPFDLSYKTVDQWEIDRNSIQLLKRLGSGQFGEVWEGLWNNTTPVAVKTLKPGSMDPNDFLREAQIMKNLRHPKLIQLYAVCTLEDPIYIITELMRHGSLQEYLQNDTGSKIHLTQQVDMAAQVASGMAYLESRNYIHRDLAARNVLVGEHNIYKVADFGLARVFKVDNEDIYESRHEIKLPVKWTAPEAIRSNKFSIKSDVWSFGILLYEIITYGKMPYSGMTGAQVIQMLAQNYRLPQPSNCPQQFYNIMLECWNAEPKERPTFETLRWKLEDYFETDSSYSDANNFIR
Text: as §1

Experiment [8] addresses 320 wild-type protein kinases (Homo sapiens, UniProt Q5TCY1). To be noted: kinase TTBK1, singlicate.
Text: as §1

Experiment [9] deals with 320 wild-type protein kinases (Homo sapiens, UniProt Q8N568). To be noted: singlicate.
Chain of 320 wild-type protein kinases (Homo sapiens, UniProt Q8N568) (Q8N568 whole entry): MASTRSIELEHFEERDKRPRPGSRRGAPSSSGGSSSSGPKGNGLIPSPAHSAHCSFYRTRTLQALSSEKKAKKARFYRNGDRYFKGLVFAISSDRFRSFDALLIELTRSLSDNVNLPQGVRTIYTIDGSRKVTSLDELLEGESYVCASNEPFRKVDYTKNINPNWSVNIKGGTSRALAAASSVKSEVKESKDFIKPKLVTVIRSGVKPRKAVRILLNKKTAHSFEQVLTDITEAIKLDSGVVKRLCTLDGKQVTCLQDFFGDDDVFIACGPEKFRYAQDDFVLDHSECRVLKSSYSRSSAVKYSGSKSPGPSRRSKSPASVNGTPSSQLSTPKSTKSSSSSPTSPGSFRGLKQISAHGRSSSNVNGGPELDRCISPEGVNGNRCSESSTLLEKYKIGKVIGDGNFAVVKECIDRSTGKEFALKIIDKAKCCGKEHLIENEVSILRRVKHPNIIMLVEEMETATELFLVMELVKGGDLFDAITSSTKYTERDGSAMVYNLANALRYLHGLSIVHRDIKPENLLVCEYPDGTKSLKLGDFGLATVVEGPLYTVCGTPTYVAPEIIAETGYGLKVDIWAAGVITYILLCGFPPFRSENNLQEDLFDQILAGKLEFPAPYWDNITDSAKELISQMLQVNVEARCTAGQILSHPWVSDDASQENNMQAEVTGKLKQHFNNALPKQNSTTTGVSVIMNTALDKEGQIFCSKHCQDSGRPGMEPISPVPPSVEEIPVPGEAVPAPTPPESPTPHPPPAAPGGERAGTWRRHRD
Text: as §1

Chain of 320 wild-type protein kinases (Homo sapiens, UniProt Q5TCY1) (Q5TCY1 whole entry): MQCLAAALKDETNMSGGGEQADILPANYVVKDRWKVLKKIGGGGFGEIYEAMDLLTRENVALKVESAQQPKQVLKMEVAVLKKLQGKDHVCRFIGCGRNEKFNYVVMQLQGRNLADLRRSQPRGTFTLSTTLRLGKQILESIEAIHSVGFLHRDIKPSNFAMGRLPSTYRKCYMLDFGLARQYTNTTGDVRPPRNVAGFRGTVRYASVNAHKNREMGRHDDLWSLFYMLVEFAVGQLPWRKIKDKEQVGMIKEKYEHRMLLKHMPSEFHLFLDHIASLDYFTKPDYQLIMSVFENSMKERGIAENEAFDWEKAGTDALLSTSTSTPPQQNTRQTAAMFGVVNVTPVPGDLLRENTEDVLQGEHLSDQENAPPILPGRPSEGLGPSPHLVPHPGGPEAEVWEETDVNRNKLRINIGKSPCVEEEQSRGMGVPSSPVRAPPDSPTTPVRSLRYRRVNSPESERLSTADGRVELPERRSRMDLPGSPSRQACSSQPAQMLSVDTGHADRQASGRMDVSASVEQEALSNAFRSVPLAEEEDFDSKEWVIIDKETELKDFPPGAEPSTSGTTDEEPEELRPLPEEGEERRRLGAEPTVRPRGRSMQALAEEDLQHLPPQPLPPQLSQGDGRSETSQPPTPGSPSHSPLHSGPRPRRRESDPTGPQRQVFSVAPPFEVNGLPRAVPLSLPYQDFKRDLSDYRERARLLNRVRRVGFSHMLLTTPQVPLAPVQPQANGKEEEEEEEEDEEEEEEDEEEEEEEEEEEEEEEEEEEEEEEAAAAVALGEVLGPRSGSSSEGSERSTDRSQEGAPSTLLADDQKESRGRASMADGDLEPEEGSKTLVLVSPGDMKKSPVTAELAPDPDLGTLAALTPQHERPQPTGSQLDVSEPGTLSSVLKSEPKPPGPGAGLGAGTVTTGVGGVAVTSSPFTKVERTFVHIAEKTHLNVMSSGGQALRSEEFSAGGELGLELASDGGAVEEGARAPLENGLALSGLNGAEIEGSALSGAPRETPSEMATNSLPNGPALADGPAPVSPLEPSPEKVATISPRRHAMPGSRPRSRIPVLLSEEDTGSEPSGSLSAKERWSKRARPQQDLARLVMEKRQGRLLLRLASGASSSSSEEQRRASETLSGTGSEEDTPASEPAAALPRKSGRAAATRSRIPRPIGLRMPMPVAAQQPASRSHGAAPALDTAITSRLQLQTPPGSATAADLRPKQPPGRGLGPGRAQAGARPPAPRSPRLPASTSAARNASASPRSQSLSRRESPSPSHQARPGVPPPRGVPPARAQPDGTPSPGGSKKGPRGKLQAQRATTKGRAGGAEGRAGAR

With `C#Cc1cc(Nc2ncnc3cc(OC)c(OC)cc23)ccc1Cl` [Compound 45], the Residual activity in experiment [1] (GRK3, 1.0E-06 M) is recorded as 118 % of control; in [1] (GRK3, 1.0E-07 M) it was 123 % of control; in [2] (1.0E-06 M), 94 % of control; in experiment [2] (1.0E-07 M), 111 % of control; in experiment [3] (ACV-RL1, 1.0E-06 M) it was 106 % of control; in experiment [3] (ACV-RL1, 1.0E-07 M), 110 % of control. Also, the Residual activity in experiment [4] (1.0E-06 M) was 85 % of control; in [4] (1.0E-07 M) it was 108 % of control; in experiment [5] (EPHB1, 1.0E-06 M) it was 82 % of control; in [5] (EPHB1, 1.0E-07 M), 86 % of control; in [7] (1.0E-06 M), 74 % of control; in [7] (1.0E-07 M), 96 % of control. Further, the Residual activity in [9] (DCAMKL2, 1.0E-06 M) is given as 103 % of control; in [9] (DCAMKL2, 1.0E-07 M), 97 % of control. For the same molecule, the “Residual activity, RPS6KA6” value is 70 % of control in [6] (assay conc. 1.0E-06 M) and 93 % of control in experiment [6] (assay conc. 1.0E-07 M). Moreover, the “Residual activity, TTBK1” value is reported as 101 % of control in experiment [8] (assay conc. 1.0E-06 M) and 109 % of control in [8] (assay conc. 1.0E-07 M).

For the molecule `C#Cc1cc(Nc2ncnc3cc(I)ccc23)ccc1Cl` [Compound 41], the Residual activity in [1] (GRK3, 1.0E-06 M) is given as 127 % of control; in [1] (GRK3, 1.0E-07 M), 131 % of control; in [2] (1.0E-06 M), 94 % of control; in experiment [2] (1.0E-07 M), 112 % of control; in experiment [3] (ACV-RL1, 1.0E-06 M) it was 105 % of control; in experiment [3] (ACV-RL1, 1.0E-07 M), 102 % of control. In addition, the Residual activity in experiment [4] (1.0E-06 M) is recorded as 100 % of control; in [4] (1.0E-07 M), 96 % of control; in [5] (EPHB1, 1.0E-06 M), 87 % of control; in experiment [5] (EPHB1, 1.0E-07 M) it was 103 % of control; in [7] (1.0E-06 M), 106 % of control; in experiment [7] (1.0E-07 M), 93 % of control. Also, the Residual activity in experiment [9] (DCAMKL2, 1.0E-06 M) was 90 % of control; in experiment [9] (DCAMKL2, 1.0E-07 M), 87 % of control. The “Residual activity, RPS6KA6” value in experiment [6] (assay conc. 1.0E-06 M) is 94 % of control; in experiment [6] (assay conc. 1.0E-07 M) it was 103 % of control. Also, the “Residual activity, TTBK1” value in [8] (assay conc. 1.0E-06 M) is 102 % of control; in experiment [8] (assay conc. 1.0E-07 M), 113 % of control.
